According to patent publication US20090192298A1, “Through-bond energy transfer cassettes, systems and methods” (priority 2007, published 2009):

Key:
Assay type in all cases: physicochemical
[1] = Spectral Properties of 9 in CH2Cl2, Table 3; set-up: emax: unit not given beside the values; details: for Ff: Rhodamine 101 in EtOH as the standard
[2] = Spectral properties (absorbance, fluorescence, quantum yield) of sulfonated BODIPY dyes 6, Table 1; details: for F: Fluorescein in 0.1M NaOH as standard
Description: A fluorophore, according to some embodiments of the disclosure, may have a high extinction coefficient and/or a sharp, intense fluorescence emission (e.g., rivaling that of the BODIPY dyes). A fluorophore may also have single molecule detection capacity.

[3] = Fluorescence properties of water-soluble Nile Blue derivatives in aqueous media; details: for quantum yields versus I and J: pH 7.4 in aqueous media; for fwmh less than reported water-soluble Nile Blue derivatives: phosphate buffer pH 7.4, versus I and J
Description: A dye may include, in some embodiments, one or more of Nile Blue derivatives 17-20 (FIG. 11).

[4] = Water solubility of through-bond energy transfer cassettes
[5] = 0.1M lithium phosphate buffer (pH = 7.4)

Structure (SMILES) | If [1] [nm] | Imax [1] [nm] | emax [1] | fwhm (full width at half-maximum height) [1] [nm] | Ff [1] | Imax abs ([2]; solvent MeOH) [nm] | Imax emiss ([2]; solvent MeOH) [nm] | e ([2]; solvent MeOH) [M⁻¹ cm⁻¹] | fwhm ([2]; solvent MeOH) [nm] | F ([2]; solvent MeOH) | further results
CCC(C)Nc1c2ccc(=[N+]3CCCCC3)cc-2oc2cc(N3CCCCC3)ccc12.O=S(=O)([O-])C(F)(F)F (racemic) [9c] | 537 | 456 | 52423 | 52 | 0.85 ± 0.01 | – | – | – | – | – | –
CC1=[N+]2C(=Cc3c(C)cc(C)n3[B-]2(F)F)C(=O)N1C [6a] | – | – | – | – | – | 477 | 485 | 57286 | 19 | 0.89 ± 0.01 | –
Cc1cc(C)n2c1C=C1C(=O)N(C)C(c3ccccc3)=[N+]1[B-]2(F)F [6b] | – | – | – | – | – | 490 | 521 | 58684 | 46 | 0.87 ± 0.01 | –
Cc1cc(C)n2c1C=C1C(=O)N(C)C(c3ccc(I)cc3)=[N+]1[B-]2(F)F [6c] | – | – | – | – | – | 492 | 532 | 57303 | 54 | 0.86 ± 0.02 | –
COc1ccc(C2=[N+]3C(=Cc4c(C)cc(C)n4[B-]3(F)F)C(=O)N2C)cc1 [6d] | – | – | – | – | – | 493 | 521 | 51269 | 38 | 0.85 ± 0.03 | –
Cc1cc(C)n2c1C=C1C(=O)NC(c3ccccc3)=[N+]1[B-]2(F)F [6e] | – | – | – | – | – | 495 | 531 | 37867 | 48 | 0.80 ± 0.01 | –
Cc1cc(C)n2c1C=C1C(=O)N(C)C(c3ccc([N+](=O)[O-])cc3)=[N+]1[B-]2(F)F [6f] | – | – | – | – | – | 492 | 598 | 44003 | 120 | 0.0004 | Imax abs ([2]; solvent Hexanes): 498 nm; Imax emiss ([2]; solvent Hexanes): 587 nm; fwhm ([2]; solvent Hexanes): 53 nm; F ([2]; solvent Hexanes): 0.53 ± 0.01
Cc1c(S(=O)(=O)[O-])c(C)n2c1C=C1C(=O)N(C)C(c3ccc(I)cc3)=[N+]1[B-]2(F)F.[Na+] [6g] | – | – | – | – | – | 488 | 531 | 48132 | 53 | 0.88 ± 0.01 | Imax abs [2, 5]: 481 nm; Imax emiss [2, 5]: 518 nm; e [2, 5]: 46461 M⁻¹ cm⁻¹; fwhm [2, 5]: 50 nm; F [2, 5]: 0.87 ± 0.01
Cc1c(S(=O)(=O)O)c(C)n2c1C=C1C(=O)N(C)C(c3ccc(C#CCCCC(=O)O)cc3)=[N+]1[B-]2(F)F [6h] | – | – | – | – | – | 488 | 538 | 35024 | 58 | 0.84 ± 0.01 | Imax abs [2, 5]: 482 nm; Imax emiss [2, 5]: 526 nm; e [2, 5]: 34766 M⁻¹ cm⁻¹; fwhm [2, 5]: 56 nm; F [2, 5]: 0.82 ± 0.01
O=S(=O)([O-])C(F)(F)F.c1cc2c(N3CCCCC3)c3ccc(=[N+]4CCCCC4)cc-3oc2cc1N1CCCCC1 [9a] | 562 | 491 | 60409 | 55 | 0.14 ± 0.01 | – | – | – | – | – | –
CCN(CC)c1c2ccc(=[N+]3CCCCC3)cc-2oc2cc(N3CCCCC3)ccc12.O=S(=O)([O-])C(F)(F)F [9b] | 558 | 499 | 50978 | 41 | 0.11 ± 0.02 | – | – | – | – | – | –
CC(Nc1c2ccc(=[N+]3CCCCC3)cc-2oc2cc(N3CCCCC3)ccc12)C(=O)OC(C)(C)C.O=S(=O)([O-])C(F)(F)F (centres unmarked) [9d] | 544 | 462 | 62044 | 52 | 0.90 ± 0.02 | – | – | – | – | – | –
O=S(=O)([O-])C(F)(F)F.c1ccc(CSc2c3ccc(=[N+]4CCCCC4)cc-3oc3cc(N4CCCCC4)ccc23)cc1 [9e] | 619 | 598 | 82617 | 38 | 0.79 ± 0.02 | – | – | – | – | – | –
COC(=O)C1CCN(c2ccc3c(N4CCCCC4)c4ccc(=[N+]5CCC(C(=O)OC)CC5)cc-4oc3c2)CC1.O=S(=O)([O-])C(F)(F)F (centres unmarked) [9f] | 552 | 482 | 54908 | 47 | 0.02 ± 0.001 | – | – | – | – | – | –
CCN(CCCS(=O)(=O)O)c1ccc2nc3c4cc(O)ccc4c(=NCCCS(=O)(=O)O)cc-3oc2c1.Cl [compound 17] | – | – | – | – | – | – | – | – | – | – | quantum yields versus I and J [3]: improved quantum yields; fwmh less than reported water-soluble Nile Blue derivatives [3]: 20 nm
Cl.O=C(O)CCN(CCC(=O)O)c1ccc2nc3c4cc(O)ccc4c(=NCCCS(=O)(=O)O)cc-3oc2c1 [compound 18] | – | – | – | – | – | – | – | – | – | – | quantum yields versus I and J [3]: improved quantum yields; fwmh less than reported water-soluble Nile Blue derivatives [3]: 20 nm
COc1ccccc1C1=[N+]2C(=C(c3ccc(-c4cn(-c5ccc(C6=C7C(C)=C(S(=O)(=O)[O-])C(C)=[N+]7[B-](F)(F)n7c(C)c(S(=O)(=O)[O-])c(C)c76)cc5)nn4)cc3OCC(=O)O)c3ccc(-c4ccccc4OC)n3[B-]2(F)F)C=C1.[Na+].[Na+] [compound 22] | – | – | – | – | – | – | – | – | – | – | water solubility [4]: water soluble
